Experimental data taken from US6495591B1, “Fungal efflux pump inhibitors” (Essential Therapeutics, Inc., priority 1997, dated 2002).
pIC50: −log10 of the molar value. In brackets after ≈: the same amount, converted by molar mass. Where two headings read alike, the source gives them in different places.

How the values were obtained:
[1] = tested on: C. albicans YEM-20 (CDR1 deleted); assay: microbe, parasite or virus in culture; format: cell-based
[2] = tested on: YEM 13 C. albicans BEN up; assay: microbe, parasite or virus in culture; format: cell-based; conditions: YEM 13, 24 hrs, 80% inhibition; for MIC of compound in the presence of fluconazole (+): 1/8 × MIC of fluconazole
[3] = tested on: YEM 53 C. krusei; assay: FEPI MIC with/without 1/8 fluconazole MIC at 24 hrs (Table 11); format: cell-based; conditions: for MIC of compound in the absence of fluconazole (−): YEM 53, 24 hrs, 80% inhibition
[4] = tested on: pCgBEN (MF) efflux pump in S. cerevisiae YEM-40; format: cell-based, C. glabrata; conditions: YEM-40 pCgBEN; fluconazole fixed at FLUhalf 2.8
[5] = tested on: YEM 30 C. albicans wt; assay: FEPI MIC with/without 1/8 fluconazole MIC at 24 hrs (Table 11); format: cell-based; conditions: for MIC of compound in the absence of fluconazole (−): YEM 30, 24 hrs, 80% inhibition
[6] = molecular target: pCDRI (ABC) efflux pump in S. cerevisiae YEM-1 (Candida albicans, UniProt P43071); assay: cell-based; format: cell-based, C. albicans
Chain of pCDRI (ABC) efflux pump in S. cerevisiae YEM-1 (P43071 whole entry): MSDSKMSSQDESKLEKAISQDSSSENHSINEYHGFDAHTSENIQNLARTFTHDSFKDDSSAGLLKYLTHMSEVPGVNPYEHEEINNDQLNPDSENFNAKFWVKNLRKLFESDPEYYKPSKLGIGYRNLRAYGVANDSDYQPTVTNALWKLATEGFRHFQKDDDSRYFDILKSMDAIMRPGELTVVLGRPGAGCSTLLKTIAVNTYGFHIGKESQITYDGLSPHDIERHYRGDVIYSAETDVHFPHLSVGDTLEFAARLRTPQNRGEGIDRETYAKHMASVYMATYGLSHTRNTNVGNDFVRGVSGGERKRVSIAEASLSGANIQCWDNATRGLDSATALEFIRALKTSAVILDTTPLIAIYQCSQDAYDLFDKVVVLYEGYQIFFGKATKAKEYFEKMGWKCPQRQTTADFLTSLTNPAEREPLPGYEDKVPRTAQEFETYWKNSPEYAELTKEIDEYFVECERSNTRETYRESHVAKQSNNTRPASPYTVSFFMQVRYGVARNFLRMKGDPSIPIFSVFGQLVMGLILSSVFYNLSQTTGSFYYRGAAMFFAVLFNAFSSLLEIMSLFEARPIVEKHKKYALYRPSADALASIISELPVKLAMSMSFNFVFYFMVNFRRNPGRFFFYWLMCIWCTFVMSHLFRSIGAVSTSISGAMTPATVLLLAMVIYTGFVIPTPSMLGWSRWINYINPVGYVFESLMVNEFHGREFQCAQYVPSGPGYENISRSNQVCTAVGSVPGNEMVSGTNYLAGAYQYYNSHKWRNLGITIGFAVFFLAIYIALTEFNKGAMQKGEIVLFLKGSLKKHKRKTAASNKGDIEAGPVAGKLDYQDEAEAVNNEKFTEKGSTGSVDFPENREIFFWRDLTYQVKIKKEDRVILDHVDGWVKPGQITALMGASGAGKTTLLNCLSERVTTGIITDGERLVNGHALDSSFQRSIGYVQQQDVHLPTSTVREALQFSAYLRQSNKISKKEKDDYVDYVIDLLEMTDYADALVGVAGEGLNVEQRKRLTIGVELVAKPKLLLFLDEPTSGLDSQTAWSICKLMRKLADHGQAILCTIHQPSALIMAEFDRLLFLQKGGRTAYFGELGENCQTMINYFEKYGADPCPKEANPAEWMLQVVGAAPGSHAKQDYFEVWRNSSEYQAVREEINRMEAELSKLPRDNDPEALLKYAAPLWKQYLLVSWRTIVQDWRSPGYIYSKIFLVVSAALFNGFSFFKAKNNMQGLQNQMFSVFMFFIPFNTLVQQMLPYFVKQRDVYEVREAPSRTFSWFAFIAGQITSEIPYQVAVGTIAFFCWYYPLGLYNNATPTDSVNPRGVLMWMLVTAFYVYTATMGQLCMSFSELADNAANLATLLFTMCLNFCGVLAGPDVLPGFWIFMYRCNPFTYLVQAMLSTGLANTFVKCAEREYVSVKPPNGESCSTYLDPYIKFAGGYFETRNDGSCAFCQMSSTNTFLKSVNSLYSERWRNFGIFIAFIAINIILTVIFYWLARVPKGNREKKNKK

[7] = tested on: C. albicans YEM-29 (BEN, FLU1 deleted); assay: microbe, parasite or virus in culture; format: cell-based
[8] = molecular target: pCgCDR (ABC) efflux pump in S. cerevisiae YEM-39 (Candida glabrata, UniProt Q6FK23); assay: cell-based; format: cell-based, C. glabrata
Chain of pCgCDR (ABC) efflux pump in S. cerevisiae YEM-39 (Q6FK23 whole entry): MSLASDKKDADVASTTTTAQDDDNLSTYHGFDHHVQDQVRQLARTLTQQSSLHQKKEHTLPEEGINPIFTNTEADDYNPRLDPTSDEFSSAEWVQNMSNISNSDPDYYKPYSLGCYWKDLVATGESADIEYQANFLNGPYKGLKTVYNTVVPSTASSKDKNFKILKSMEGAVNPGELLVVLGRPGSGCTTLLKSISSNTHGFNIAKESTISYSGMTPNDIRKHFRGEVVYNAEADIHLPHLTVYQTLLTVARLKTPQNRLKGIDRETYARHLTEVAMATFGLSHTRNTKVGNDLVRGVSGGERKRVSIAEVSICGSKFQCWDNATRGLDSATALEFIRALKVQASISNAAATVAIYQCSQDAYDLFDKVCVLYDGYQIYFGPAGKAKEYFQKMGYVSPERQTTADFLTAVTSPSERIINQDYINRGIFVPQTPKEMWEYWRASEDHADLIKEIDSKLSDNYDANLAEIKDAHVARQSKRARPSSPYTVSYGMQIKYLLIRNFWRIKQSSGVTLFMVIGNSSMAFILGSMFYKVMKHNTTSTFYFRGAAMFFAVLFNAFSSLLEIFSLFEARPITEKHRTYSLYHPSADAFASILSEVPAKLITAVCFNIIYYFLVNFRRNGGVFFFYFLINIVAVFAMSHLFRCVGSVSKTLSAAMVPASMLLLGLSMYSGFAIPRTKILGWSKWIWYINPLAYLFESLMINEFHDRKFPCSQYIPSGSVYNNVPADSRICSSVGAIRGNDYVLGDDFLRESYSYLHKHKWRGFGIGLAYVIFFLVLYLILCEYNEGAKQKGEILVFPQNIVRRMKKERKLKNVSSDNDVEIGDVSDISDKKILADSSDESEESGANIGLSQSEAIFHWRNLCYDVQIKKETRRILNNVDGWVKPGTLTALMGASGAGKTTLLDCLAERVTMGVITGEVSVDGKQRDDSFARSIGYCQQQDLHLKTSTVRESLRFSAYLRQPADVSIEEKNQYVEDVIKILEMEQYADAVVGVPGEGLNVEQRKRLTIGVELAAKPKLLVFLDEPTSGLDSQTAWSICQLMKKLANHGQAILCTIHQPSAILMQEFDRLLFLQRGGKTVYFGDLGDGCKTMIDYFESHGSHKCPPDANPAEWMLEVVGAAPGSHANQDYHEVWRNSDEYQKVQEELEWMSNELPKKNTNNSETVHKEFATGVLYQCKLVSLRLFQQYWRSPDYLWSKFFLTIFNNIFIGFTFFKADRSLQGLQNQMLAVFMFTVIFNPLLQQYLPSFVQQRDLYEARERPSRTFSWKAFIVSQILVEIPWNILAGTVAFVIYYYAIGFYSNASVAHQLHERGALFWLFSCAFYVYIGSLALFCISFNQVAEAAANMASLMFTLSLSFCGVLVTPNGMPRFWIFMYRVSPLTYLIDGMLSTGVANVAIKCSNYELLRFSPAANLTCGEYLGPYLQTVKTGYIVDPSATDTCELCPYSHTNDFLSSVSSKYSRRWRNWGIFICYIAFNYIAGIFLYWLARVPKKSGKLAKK

[9] = tested on: S. cerevisiae YEM-38 (FLU1 introduced); assay: microbe, parasite or virus in culture; format: cell-based; conditions: Saccharomyces cerevisiae, read-out: MIC Mb alone
[10] = molecular target: CDR1 efflux pump (Candida albicans, UniProt P43071); assay: Follow-up evaluation of screening hit, efflux pump inhibition; conditions: follow-up evaluation of screen hit
Protocol: An exemplary screen uses C. albicans (e.g., ATCC10231) grown in YPD medium (medium described in “Guide to Yeast Genetics and Molecular Biology”, in Methods in Enzymolopy, vol. 194, pp.13, 1991,; Academic Press; Ed. C. Guthrie and G. Fink) at 30° C. […] Test and control cultures are inoculated with log-phase cells to provide approximately 10^3 CFU/ml. Cultures are incubated at 30° C. for 20-22 hrs. Cell concentration is determined by taking the OD600.

[11] = tested on: YEM 17 C. glabrata, CgCDR up; format: cell-based; conditions: 24 hrs, 80% inhibition; for MIC of compound in the presence of fluconazole (+): 1/8 × MIC of fluconazole
[12] = tested on: YEM 51 C. glabrata wt; assay: FEPI MIC with/without 1/8 fluconazole MIC at 24 hrs (Table 11); format: cell-based; conditions: for MIC of compound in the absence of fluconazole (−): YEM 51, 24 hrs, 80% inhibition
[13] = tested on: YEM 15 C. albicans, CDR1CDR2 up; assay: microbe, parasite or virus in culture; format: cell-based; conditions: YEM 15, 24 hrs, 80% inhibition; for MIC of compound in the presence of fluconazole (+): 1/8 × MIC of fluconazole
[14] = tested on: C. glabrata YEM-17 (CgCDR overexpressor); assay: microbe, parasite or virus in culture; format: cell-based
[15] = tested on: YEM 27 C. albicans ΔCDR1ΔCDR2 ΔBENΔFLU1; assay: microbe, parasite or virus in culture; format: cell-based; conditions: YEM 27, 24 hrs, 80% inhibition; for MIC of compound in the presence of fluconazole (+): 1/8 × MIC of fluconazole
[16] = tested on: C. albicans YEM-30 (wild-type, no pump deleted); assay: microbe, parasite or virus in culture; format: cell-based
[17] = molecular target: pBEN (MF) efflux pump in S. cerevisiae YEM-2 (Candida albicans, UniProt P28873); assay: cell-based; format: cell-based, C. albicans
Chain of pBEN (MF) efflux pump in S. cerevisiae YEM-2 (P28873 whole entry): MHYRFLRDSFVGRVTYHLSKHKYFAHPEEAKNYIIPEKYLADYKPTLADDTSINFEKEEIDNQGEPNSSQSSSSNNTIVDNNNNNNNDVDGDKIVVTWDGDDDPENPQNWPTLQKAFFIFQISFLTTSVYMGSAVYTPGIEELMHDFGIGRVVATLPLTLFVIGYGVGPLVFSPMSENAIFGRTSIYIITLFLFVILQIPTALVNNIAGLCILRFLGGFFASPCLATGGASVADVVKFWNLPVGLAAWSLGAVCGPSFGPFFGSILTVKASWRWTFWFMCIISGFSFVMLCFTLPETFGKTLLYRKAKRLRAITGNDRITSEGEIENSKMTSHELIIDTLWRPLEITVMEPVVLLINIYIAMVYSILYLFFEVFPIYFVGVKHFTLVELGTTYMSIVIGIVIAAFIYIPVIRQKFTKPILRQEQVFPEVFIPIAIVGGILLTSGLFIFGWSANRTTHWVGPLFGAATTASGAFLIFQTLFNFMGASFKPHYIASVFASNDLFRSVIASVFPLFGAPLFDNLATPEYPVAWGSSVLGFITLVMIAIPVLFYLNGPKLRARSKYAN

[18] = tested on: Aspergillus fumigatus; assay: FEPI MICs in combination with 1/4 the azole's MIC (Table 12); format: cell-based; conditions: for FEPI MIC with itraconazole, 60% Inh / FEPI MIC with itraconazole, 80% Inh: itraconazole 0.063 μg/ml (1/4 MIC); for FEPI MIC with itraconazole, 60% Inh / FEPI MIC with ketoconazole, 60% Inh: 60% inhibition; for FEPI MIC with itraconazole, 80% Inh / FEPI MIC with ketoconazole, 80% Inh / FEPI MIC (alone): 80% inhibition; for FEPI MIC with ketoconazole, 60% Inh / FEPI MIC with ketoconazole, 80% Inh: ketoconazole 4 μg/ml (1/4 MIC); for FEPI MIC (alone): no azole, 35° C., CM Broth
Protocol: The combinations were tested against a series of Candida strain with known expression of efflux pumps or with complete deletion of all known pumps and Aspergillus fumigatus. Results are reported as minimum inhibitory concentration (MIC) of […] in the presence or absence of […]. A total of 27 distinct milbemycins were studied.

[19] = molecular target: pCDR2 (ABC) efflux pump in S. cerevisiae YEM-37 (Candida albicans, UniProt P78595); assay: cell-based; format: cell-based, C. albicans
Chain of pCDR2 (ABC) efflux pump in S. cerevisiae YEM-37 (P78595 whole entry): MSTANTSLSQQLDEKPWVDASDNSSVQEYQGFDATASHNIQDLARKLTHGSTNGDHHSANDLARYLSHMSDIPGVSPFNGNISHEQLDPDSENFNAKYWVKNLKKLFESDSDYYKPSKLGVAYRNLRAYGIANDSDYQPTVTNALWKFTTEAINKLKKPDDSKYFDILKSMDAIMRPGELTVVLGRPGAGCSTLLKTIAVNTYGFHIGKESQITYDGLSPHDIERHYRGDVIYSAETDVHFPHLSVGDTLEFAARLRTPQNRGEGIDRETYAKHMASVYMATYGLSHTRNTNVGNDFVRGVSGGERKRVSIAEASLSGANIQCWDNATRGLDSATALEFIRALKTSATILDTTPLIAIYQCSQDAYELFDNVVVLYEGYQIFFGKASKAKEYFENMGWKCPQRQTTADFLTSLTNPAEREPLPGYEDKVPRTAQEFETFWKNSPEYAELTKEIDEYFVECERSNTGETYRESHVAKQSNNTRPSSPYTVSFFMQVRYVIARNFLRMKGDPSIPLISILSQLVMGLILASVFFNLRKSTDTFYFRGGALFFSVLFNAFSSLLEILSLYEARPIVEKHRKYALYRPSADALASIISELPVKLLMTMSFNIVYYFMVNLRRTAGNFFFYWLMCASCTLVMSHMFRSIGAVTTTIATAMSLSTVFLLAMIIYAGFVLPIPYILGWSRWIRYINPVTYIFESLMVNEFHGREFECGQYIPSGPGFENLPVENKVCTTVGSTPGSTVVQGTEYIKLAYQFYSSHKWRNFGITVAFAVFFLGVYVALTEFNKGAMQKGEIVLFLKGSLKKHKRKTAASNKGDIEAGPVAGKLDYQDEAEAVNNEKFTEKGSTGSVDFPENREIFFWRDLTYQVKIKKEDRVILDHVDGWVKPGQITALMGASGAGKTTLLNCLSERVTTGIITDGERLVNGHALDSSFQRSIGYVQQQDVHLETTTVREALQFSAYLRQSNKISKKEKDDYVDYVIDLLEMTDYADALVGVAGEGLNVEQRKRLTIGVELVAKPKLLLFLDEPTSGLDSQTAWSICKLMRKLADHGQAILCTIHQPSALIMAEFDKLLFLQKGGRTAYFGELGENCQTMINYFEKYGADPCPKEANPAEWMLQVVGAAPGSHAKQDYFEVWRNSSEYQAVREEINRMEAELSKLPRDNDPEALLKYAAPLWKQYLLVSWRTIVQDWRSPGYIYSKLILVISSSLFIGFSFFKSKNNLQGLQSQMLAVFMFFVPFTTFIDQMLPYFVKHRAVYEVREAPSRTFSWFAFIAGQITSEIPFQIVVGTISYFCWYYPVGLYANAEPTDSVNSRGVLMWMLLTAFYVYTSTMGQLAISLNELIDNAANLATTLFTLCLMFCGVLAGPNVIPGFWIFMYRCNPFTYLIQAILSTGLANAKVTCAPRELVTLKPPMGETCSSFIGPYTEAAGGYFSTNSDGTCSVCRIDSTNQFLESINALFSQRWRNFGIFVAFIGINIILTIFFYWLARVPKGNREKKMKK

[20] = tested on: YEM 24 C. albicans ΔCDR1, ΔCDR2; assay: microbe, parasite or virus in culture; format: cell-based; conditions: YEM 24, 24 hrs, 80% inhibition; for MIC of compound in the presence of fluconazole (+): 1/8 × MIC of fluconazole
[21] = tested on: C. glabrata YEM-17 (CgCDR overexpressor); assay: microbe, parasite or virus in culture; format: cell-based; parameters: MIC Reduction Factor, fluconazole / MIC Reduction Factor, itraconazole / MIC Reduction Factor, ketoconazole / MIC Reduction Factor, terbinafine: unit not given beside the values; conditions: for MIC: Nakaseomyces glabratus
[22] = tested on: S. cerevisiae YEM-1 overexpressing CDR1 (C. albicans); assay: microbe, parasite or virus in culture; format: cell-based; parameters: MIC Reduction Factor, fluconazole: unit not given beside the values; conditions: for MIC: Saccharomyces cerevisiae
[23] = Candida albicans, read-out: MIC Mb alone
[24] = read-out: Terbinafine MIC in the presence of FEPImax
[25] = YEM-17, milbemycin α9 at FEPImax
[26] = YEM-1 (CDR1), milbemycin α9 at FEPImax
[27] = YEM-1, milbemycin α9 at FEPImax

CO[C@H]1C[C@@]2(O)/C(CO)=C/C=C/[C@H](C)C/C(C)=C/C[C@@H]3C[C@@H](C[C@]4(CC[C@H](C)[C@@H](C)O4)O3)OC(=O)[C@@H]2C=C1C [Compound 6, Milbemycin β1]
MIC [1, 23]: 16 µg/mL (≈ 29.4 µM) | MIC of fluconazole, Flu + Mb (2.5 μg/ml) ([1]; YEM-20, CDR1 deleted, milbemycin β1 2.5 μg/ml): 0.125 µg/mL | MIC of compound in the presence of fluconazole (+) [2]: > 64 µg/mL | MIC of compound in the absence of fluconazole (−) [2]: > 64 µg/mL | MIC of compound in the presence of fluconazole (+) [3]: 8 µg/mL | MIC of compound in the absence of fluconazole (−) [3]: > 64 µg/mL | FEPIhalf (concentration needed to reduce activity of efflux pump by 50%) [4]: 16 | MIC of compound in the presence of fluconazole (+) [5]: ≦0.03 | MIC of compound in the absence of fluconazole (−) [5]: > 64 µg/mL | pIC50 ([6]; read-out: FEPIhalf (concentration needed to reduce activity of efflux pump by 50%), YEM-1 pCDRI, fluconazole fixed at FLUhalf 5.6): 6.04 | MIC [7, 23]: 16 µg/mL (≈ 29.4 µM) | MIC of fluconazole, Flu + Mb (2.5 μg/ml) ([7]; YEM-29, BEN, FLU1 deleted, milbemycin β1 2.5 μg/ml): 0.03 µg/mL | pIC50 ([8]; read-out: FEPIhalf (concentration needed to reduce activity of efflux pump by 50%), YEM-39 pCgCDR, fluconazole fixed at FLUhalf 4): 5.44 | MIC [9]: 8 µg/mL (≈ 14.7 µM) | Inhibition of the CDR1 efflux pump [10]: inhibited the CDR1 efflux pump | MIC of compound in the presence of fluconazole (+) [11]: 1 µg/mL | MIC of compound in the absence of fluconazole (−) [11]: > 64 µg/mL | MIC of compound in the presence of fluconazole (+) [12]: 8 µg/mL | MIC of compound in the absence of fluconazole (−) [12]: > 64 µg/mL | MIC of compound in the presence of fluconazole (+) [13]: ≦0.03 | MIC of compound in the absence of fluconazole (−) [13]: > 64 µg/mL | MIC ([14]; Nakaseomyces glabratus, read-out: MIC of milbemycin β1 (MB) alone): > 64 µg/mL | Fluconazole MIC with 2.5 μg/ml milbemycin β1 ([14]; YEM-17): 4 µg/mL | Fluconazole MIC with 5 μg/ml milbemycin β1 ([14]; YEM-17): 2 µg/mL | Fluconazole MIC with 10 μg/ml milbemycin β1 ([14]; YEM-17): 2 µg/mL | Fluconazole MIC with […] milbemycin β1 ([14]; YEM-17): 8 µg/mL | MIC of compound in the presence of fluconazole (+) [15]: 64 µg/mL | MIC of compound in the absence of fluconazole (−) [15]: > 64 µg/mL | MIC [16, 23]: 16 µg/mL (≈ 29.4 µM) | MIC of fluconazole, Flu + Mb (2.5 μg/ml) ([16]; YEM-30, milbemycin β1 2.5 μg/ml): 0.125 µg/mL | pIC50 ([17]; read-out: FEPIhalf (concentration needed to reduce activity of efflux pump by 50%), YEM-2 pBEN, fluconazole fixed at FLUhalf 5.6): 4.53 | FEPI MIC with fluconazole, 60% Inh [18]: 2 | FEPI MIC with fluconazole, 80% Inh [18]: >64 | FEPI MIC with itraconazole, 60% Inh [18]: >64 | FEPI MIC with itraconazole, 80% Inh [18]: >64 | FEPI MIC with ketoconazole, 60% Inh [18]: ≦0.063 | FEPI MIC with ketoconazole, 80% Inh [18]: 4 | FEPI MIC (alone) [18]: >64 | pIC50 ([19]; read-out: FEPIhalf (concentration needed to reduce activity of efflux pump by 50%), YEM-37 pCDR2, fluconazole fixed at FLUhalf 1): 5.44 | MIC of compound in the presence of fluconazole (+) [20]: > 64 µg/mL | MIC of compound in the absence of fluconazole (−) [20]: > 64 µg/mL

C/C1=C\C[C@@H]2C[C@@H](C[C@]3(CC[C@H](C)[C@@H](C)O3)O2)OC(=O)[C@@H]2C=C(COC(=O)c3ccc[nH]3)[C@@H](O)[C@H]3OC/C(=C\C=C\[C@H](C)C1)[C@]32O [Compound 11, Milbemycin α9]
MIC of compound in the presence of fluconazole (+) [2]: > 64 µg/mL | MIC of compound in the absence of fluconazole (−) [2]: > 64 µg/mL | MIC ([21]; read-out: Milbemycin α9 MIC): > 64 µg/mL | MIC [21, 24]: 4 µg/mL | FEPImax (minimal milbemycin α9 conc. for maximum MIC reduction), fluconazole ([21]; YEM-17): 8 µg/mL | FEPImax (minimal milbemycin α9 conc. for maximum MIC reduction), itraconazole ([21]; YEM-17): 4 µg/mL | FEPImax (minimal milbemycin α9 conc. for maximum MIC reduction), ketoconazole ([21]; YEM-17): 16 µg/mL | FEPImax (minimal milbemycin α9 conc. for maximum MIC reduction), terbinafine ([21]; YEM-17): 4 µg/mL | Fluconazole MIC in the presence of FEPImax [21, 25]: 4 µg/mL | Itraconazole MIC in the presence of FEPImax [21, 25]: 0.125 µg/mL | Ketoconazole MIC in the presence of FEPImax [21, 25]: 0.06 µg/mL | MIC Reduction Factor, fluconazole [21, 25]: 32 | MIC Reduction Factor, itraconazole [21, 25]: 1024 | MIC Reduction Factor, ketoconazole [21, 25]: 32 | MIC Reduction Factor, terbinafine [21, 25]: 32 | MIC of compound in the presence of fluconazole (+) [3]: ≦0.03 | MIC of compound in the absence of fluconazole (−) [3]: > 64 µg/mL | FEPIhalf (concentration needed to reduce activity of efflux pump by 50%) [4]: >64 | MIC of compound in the presence of fluconazole (+) [5]: ≦0.03 | MIC of compound in the absence of fluconazole (−) [5]: > 64 µg/mL | pIC50 [6]: > 7.03 | pIC50 [8]: 5.20 | MIC of compound in the presence of fluconazole (+) [11]: 0.5 µg/mL | MIC of compound in the absence of fluconazole (−) [11]: > 64 µg/mL | MIC of compound in the presence of fluconazole (+) [12]: 1 µg/mL | MIC of compound in the absence of fluconazole (−) [12]: > 64 µg/mL | MIC of compound in the presence of fluconazole (+) [13]: ≦0.03 | MIC of compound in the absence of fluconazole (−) [13]: > 64 µg/mL | MIC ([22]; read-out: Milbemycin α9 MIC): > 64 µg/mL | MIC [22, 24]: 0.5 µg/mL | FEPImax (minimal milbemycin α9 conc. for maximum MIC reduction), fluconazole ([22]; YEM-1 (CDR1)): 2 µg/mL | FEPImax (minimal milbemycin α9 conc. for maximum MIC reduction), terbinafine ([22]; YEM-1 (CDR1)): 0.5 µg/mL | Pump inhibition (%), fluconazole [22, 26]: 100% | Pump inhibition (%), terbinafine [22, 26]: 100% | Fluconazole MIC in the presence of FEPImax [22, 27]: 0.5 µg/mL | MIC Reduction Factor, fluconazole [22, 27]: 256 | MIC of compound in the presence of fluconazole (+) [15]: > 64 µg/mL | MIC of compound in the absence of fluconazole (−) [15]: > 64 µg/mL | pIC50 [17]: < 4.00 | FEPI MIC with fluconazole, 60% Inh [18]: ≦0.063 | FEPI MIC with fluconazole, 80% Inh [18]: 0.5 | FEPI MIC with itraconazole, 60% Inh [18]: 1 | FEPI MIC with itraconazole, 80% Inh [18]: 4 | FEPI MIC with ketoconazole, 60% Inh [18]: 0.125 | FEPI MIC with ketoconazole, 80% Inh [18]: 0.125 | FEPI MIC (alone) [18]: >64 | pIC50 [19]: 5.50 | MIC of compound in the presence of fluconazole (+) [20]: > 64 µg/mL | MIC of compound in the absence of fluconazole (−) [20]: > 64 µg/mL
